Experiment: HAp (hydroxyapatite) binding study
Settings: 20 mg synthetic HAp in 1 mL saline, 10 min incubation at ambient temperature
Procedure: To evaluate HAp binding, 20 mg of synthetic HAp was allowed to incubate in 1 mL of isotonic saline for 24 h. Labeled complex in a volume of 50 µL was then added, subjected to vortex for 10 s and incubated at ambient temperature for 10 min. After incubation, samples had been centrifuged, and the supernatant was removed. Hap fraction was washed twice with 0.5 mL saline, and all the washes were collected. Radioactivity was then checked in combined liquids and HAp fraction using gamma counter.

## [^68Ga]-trans-1,2-cyclohexyldinitrilo tetramethylene phosphonic acid [[^68Ga]-CDTMP]
  binding to HAp: 89 ± 3%

Reference: publication PMC5465288, “[^68Ga]/[^188Re] Complexed [CDTMP] Trans-1,2-Cyclohexyldinitrilotetraphosphonic Acid As a Theranostic Agent for Skeletal Metastases” (Frontiers in Medicine, 2017)
